ChEMBL document CHEMBL1135331, “Synthesis and characterization of a new RXR agonist based on the 6-tert-butyl-1,1-dimethylindanyl structure” (Bioorg Med Chem Lett, 2002)
pKd: −log10 of the molar value.

Molecular target: T1, Retinoic acid receptor RXR-alpha (Homo sapiens, UniProt P19793)
T1 sequence (P19793 whole entry): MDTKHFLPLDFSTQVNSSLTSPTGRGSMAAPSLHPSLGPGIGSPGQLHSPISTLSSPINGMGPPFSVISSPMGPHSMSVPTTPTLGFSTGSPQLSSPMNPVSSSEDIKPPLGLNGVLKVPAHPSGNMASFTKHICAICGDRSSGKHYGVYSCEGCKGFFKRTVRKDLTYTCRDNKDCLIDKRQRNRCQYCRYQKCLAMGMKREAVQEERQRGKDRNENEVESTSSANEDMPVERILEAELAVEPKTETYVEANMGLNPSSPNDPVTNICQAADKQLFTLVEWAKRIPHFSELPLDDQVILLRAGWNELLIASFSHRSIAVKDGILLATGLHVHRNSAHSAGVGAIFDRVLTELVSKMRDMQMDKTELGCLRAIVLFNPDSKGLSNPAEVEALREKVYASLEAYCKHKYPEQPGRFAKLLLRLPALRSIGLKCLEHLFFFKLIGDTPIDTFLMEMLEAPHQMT
Assay: Dissociation constant for binding to Retinoic acid receptor RXR-alpha

pKd: 6.66
Compound: C=C(/C=C/C=C/C(=O)O)c1cc(C(C)(C)C)cc2c1CCC2(C)C
